In experiment [1] the target is IL-17A(FLAG-Tagged): IL-17RA(His-Tagged) (Homo sapiens, UniProt Q16552, K93Q). In words: IL-17A(FLAG-Tagged): IL-17RA(His-Tagged) Binding Disruption Eu-HTRF Assay. The settings on record: IL-17A/IL-17RA binding disruption, simple average if tested more than once. The method in brief: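 IC50 comes from a one-site competition fit of the HTRF 665/620 nm ratio. Compound dilutions (2-fold, 22 points) were held 1 h rt with FLAG-tagged IL-17A dimer, then His-tagged IL-17RA plus Eu-cryptate anti-FLAG and D2 anti-His antibodies were added for 2 h rt.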

In experiment [2] the test system is IL-17A-induced G-CSF production in human normal keratinocyte (NHK). The experiment can be described thus: NHK Assay: IL-17A-induced G-CSF production in human normal keratinocytes. Format: cell-based. To be noted: Homo sapiens, Keratinocyte, 24 h, adult normal human keratinocytes, IL-17A 5 ng/mL, simple average if tested more than once. The gist of the method: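 G-CSF released by primary adult human keratinocytes after 24 h at 37° C was quantified by HTRF via standard curve to give IC50. Stimulus was 5 ng/mL IL-17A pre-mixed 1 h at rt with compound dilutions, in 5% FBS and 0.2% DMSO. Cell viability was assessed in parallel with CellTiter-Glo.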

19 compounds from patent US11702422B2, “Imidazopyridazines as modulators of IL-17” (Janssen Pharmaceutica NV, priority 2020, dated 2023) can be followed below.

The term IC50 denotes the concentration that inhibits the measured activity by half.

Chain of UniProt Q16552 (Q16552 with tags, fused parts or gaps K93Q): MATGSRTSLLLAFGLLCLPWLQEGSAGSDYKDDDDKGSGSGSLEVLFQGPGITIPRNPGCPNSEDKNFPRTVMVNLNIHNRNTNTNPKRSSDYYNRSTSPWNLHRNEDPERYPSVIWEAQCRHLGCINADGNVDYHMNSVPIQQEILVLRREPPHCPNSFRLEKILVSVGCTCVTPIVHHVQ

Turning to `CCOc1conc1C(=O)N[C@H](c1cn2ncc([C@H](NC(=O)CCC(F)(F)F)C3CC3)cc2n1)C1CCC(F)(F)CC1` [Example 373, N—((S)-(7-((R)-Cyclopropyl(4,4,4-trifluorobutanamido)methyl)imidazo[1,2-b]pyridazin-2-yl)(4,4-difluorocyclohexyl)methyl)-4-ethoxyisoxazole-3-carboxamide], the values for the IC50 in experiment [1] and in experiment [2] were 62 nM and 240 nM, respectively.
For `CC(C)Oc1conc1C(=O)N[C@H](c1cn2ncc([C@H](NC(=O)CCC(F)(F)F)C3CC3)cc2n1)C1CCC(F)(F)CC1` [Example 374, N—((S)-(7-((R)-Cyclopropyl(4,4,4-trifluorobutanamido)methyl)imidazo[1,2-b]pyridazin-2-yl)(4,4-difluorocyclohexyl)methyl)-4-isopropoxyisoxazole-3-carboxamide] the same measures were 46 nM and 240 nM.
`O=C(CCC(F)(F)F)N[C@@H](c1cnn2cc([C@@H](NC(=O)c3nocc3OCC(F)F)C3CCC(F)(F)CC3)nc2c1)C1CC1` [Example 375, N—((S)-(7-((R)-Cyclopropyl(4,4,4-trifluorobutanamido)methyl)imidazo[1,2-b]pyridazin-2-yl)(4,4-difluorocyclohexyl)methyl)-4-(2,2-difluoroethoxy)isoxazole-3-carboxamide]: the IC50 is 43 nM in experiment [1] and 170 nM in experiment [2].
For `O=C(CCC(F)(F)F)N[C@@H](c1cnn2cc([C@@H](NC(=O)c3nocc3OCCF)C3CCC(F)(F)CC3)nc2c1)C1CC1` [Example 376, N—((S)-(7-((R)-Cyclopropyl(4,4,4-trifluorobutanamido)methyl)imidazo[1,2-b]pyridazin-2-yl)(4,4-difluorocyclohexyl)methyl)-4-(2-fluoroethoxy)isoxazole-3-carboxamide], in that order: 79 nM and 280 nM.
Turning to `O=C(CCC(F)(F)F)N[C@@H](c1cnn2cc([C@@H](NC(=O)c3nocc3CC(F)(F)F)C3CCC(F)(F)CC3)nc2c1)C1CC1` [Example 377, N—((S)-(7-((R)-Cyclopropyl(4,4,4-trifluorobutanamido)methyl)imidazo[1,2-b]pyridazin-2-yl)(4,4-difluorocyclohexyl)methyl)-4-(2,2,2-trifluoroethyl)isoxazole-3-carboxamide], the 50% inhibitory concentration (IC50) in experiment [1] worked out at 60 nM; in experiment [2] it was 85 nM.
Regarding `CC(C)c1conc1C(=O)N[C@H](c1cn2ncc([C@H](NC(=O)CCC(F)(F)F)C3CC3)cc2n1)C1CCC(F)(F)CC1` [Example 378, N—((S)-(7-((R)-Cyclopropyl(4,4,4-trifluorobutanamido)methyl)imidazo[1,2-b]pyridazin-2-yl)(4,4-difluorocyclohexyl)methyl)-4-isopropylisoxazole-3-carboxamide], the IC50 was determined as 55 nM in experiment [1] and 95 nM in experiment [2].
For `CC(C)c1nonc1C(=O)N[C@H](c1cn2ncc([C@H](NC(=O)CCC(F)(F)F)C3CC3)cc2n1)C1CCC(F)(F)CC1` [Example 379, N—((S)-(7-((R)-Cyclopropyl(4,4,4-trifluorobutanamido)methyl)imidazo[1,2-b]pyridazin-2-yl)(4,4-difluorocyclohexyl)methyl)-4-isopropyl-1,2,5-oxadiazole-3-carboxamide], in that order: 17 nM and 30 nM.
As to `O=C(CCC(F)(F)F)N[C@@H](c1cnn2cc([C@@H](NC(=O)c3nonc3OC3CC3)C3CCC(F)(F)CC3)nc2c1)C1CC1` [Example 380, 4-Cyclopropoxy-N—((S)-(7-((R)-cyclopropyl(4,4,4-trifluorobutanamido)methyl)imidazo[1,2-b]pyridazin-2-yl)(4,4-difluorocyclohexyl)methyl)-1,2,5-oxadiazole-3-carboxamide], the IC50 in experiment [1] was determined as 48 nM; in experiment [2] it was 30 nM.
Regarding `O=C(CCC(F)(F)F)N[C@@H](c1cnn2cc([C@@H](NC(=O)c3nonc3C3CC3)C3CCC(F)(F)CC3)nc2c1)C1CC1` [Example 381, 4-Cyclopropyl-N—((S)-(7-((R)-cyclopropyl(4,4,4-trifluorobutanamido)methyl)imidazo[1,2-b]pyridazin-2-yl)(4,4-difluorocyclohexyl)methyl)-1,2,5-oxadiazole-3-carboxamide], the figures for the IC50 in experiment [1] and in experiment [2] were 27 nM and 31 nM, respectively.
In the case of `O=C(CCC(F)(F)F)N[C@@H](c1cnn2cc([C@@H](NC(=O)c3nonc3OCC(F)(F)F)C3CCC(F)(F)CC3)nc2c1)C1CC1` [Example 382, N—((S)-(7-((R)-Cyclopropyl(4,4,4-trifluorobutanamido)methyl)imidazo[1,2-b]pyridazin-2-yl)(4,4-difluorocyclohexyl)methyl)-4-(2,2,2-trifluoroethoxy)-1,2,5-oxadiazole-3-carboxamide], the IC50 was 51 nM in experiment [1] and 11 nM in experiment [2].
Turning to `O=C(CCC(F)(F)F)N[C@@H](c1cnn2cc([C@@H](NC(=O)c3nonc3OCC(F)F)C3CCC(F)(F)CC3)nc2c1)C1CC1` [Example 383, N—((S)-(7-((R)-Cyclopropyl(4,4,4-trifluorobutanamido)methyl)imidazo[1,2-b]pyridazin-2-yl)(4,4-difluorocyclohexyl)methyl)-4-(2,2-difluoroethoxy)-1,2,5-oxadiazole-3-carboxamide], the figures for the half-inhibitory concentration (IC50) in experiment [1] and in experiment [2] were 51 nM and 19 nM, respectively.
With `O=C(CCC(F)(F)F)N[C@@H](c1cnn2cc([C@@H](NC(=O)c3nonc3OCCF)C3CCC(F)(F)CC3)nc2c1)C1CC1` [Example 384, N—((S)-(7-((R)-Cyclopropyl(4,4,4-trifluorobutanamido)methyl)imidazo[1,2-b]pyridazin-2-yl)(4,4-difluorocyclohexyl)methyl)-4-(2-fluoroethoxy)-1,2,5-oxadiazole-3-carboxamide], the IC50 turned out to be 66 nM in experiment [1] and 31 nM in experiment [2].
For `O=C(CC1CC(F)(F)C1)N[C@@H](c1cnn2cc([C@@H](NC(=O)c3nonc3COC(F)F)C3CCC(F)(F)CC3)nc2c1)C1CC1` [Example 385, N—((S)-(7-((R)-Cyclopropyl(2-(3,3-difluorocyclobutyl)acetamido)methyl)imidazo[1,2-b]pyridazin-2-yl)(4,4-difluorocyclohexyl)methyl)-4-((difluoromethoxy)methyl)-1,2,5-oxadiazole-3-carboxamide] the same measures were 35 nM and 32 nM.
For `O=C(CC1CC(F)(F)C1)N[C@@H](c1cnn2cc([C@@H](NC(=O)c3nonc3N3CCC3)C3CCC(F)(F)CC3)nc2c1)C1CC1` [Example 386, 4-(Azetidin-1-yl)-N—((S)-(7-((R)-cyclopropyl(2-(3,3-difluorocyclobutyl)acetamido)methyl)imidazo[1,2-b]pyridazin-2-yl)(4,4-difluorocyclohexyl)methyl)-1,2,5-oxadiazole-3-carboxamide], in that order: 69 nM and 230 nM.
For `CC(C)(F)c1nonc1C(=O)N[C@H](c1cn2ncc([C@H](NC(=O)CCC(F)(F)F)C3CC3)cc2n1)C1CCC(F)(F)CC1` [Example 388, N—((S)-(7-((R)-Cyclopropyl(4,4,4-trifluorobutanamido)methyl)imidazo[1,2-b]pyridazin-2-yl)(4,4-difluorocyclohexyl)methyl)-4-(2-fluoropropan-2-yl)-1,2,5-oxadiazole-3-carboxamide], in that order: 85 nM and 100 nM.
For the compound `O=C(CC1CC(F)(F)C1)N[C@@H](c1cnn2cc([C@@H](NC(=O)c3nonc3OCC(F)F)C3CCC(F)(F)CC3)nc2c1)C1CC1` [Example 389, N—((S)-(7-((R)-Cyclopropyl(2-(3,3-difluorocyclobutyl)acetamido)methyl)imidazo[1,2-b]pyridazin-2-yl)(4,4-difluorocyclohexyl)methyl)-4-(2,2-difluoroethoxy)-1,2,5-oxadiazole-3-carboxamide], the IC50 in experiment [1] turned out to be 56 nM; in experiment [2] it was 29 nM.
For `O=C(CCC(F)F)N[C@@H](c1cnn2cc([C@@H](NC(=O)c3nonc3OCC(F)F)C3CCC(F)(F)CC3)nc2c1)C1CC1` [Example 390, N—((S)-(7-((R)-Cyclopropyl(4,4-difluorobutanamido)methyl)imidazo[1,2-b]pyridazin-2-yl)(4,4-difluorocyclohexyl)methyl)-4-(2,2-difluoroethoxy)-1,2,5-oxadiazole-3-carboxamide], in that order: 86 nM and 130 nM.
Regarding `CCOc1nonc1C(=O)N[C@H](c1cn2ncc([C@H](NC(=O)CC3CC(F)(F)C3)C3CC3)cc2n1)C1CCC(F)(F)CC1` [Example 391, N—((S)-(7-((R)-Cyclopropyl(2-(3,3-difluorocyclobutyl)acetamido)methyl)imidazo[1,2-b]pyridazin-2-yl)(4,4-difluorocyclohexyl)methyl)-4-ethoxy-1,2,5-oxadiazole-3-carboxamide], the results for the IC50 in experiment [1] and in experiment [2] were 43 nM and 47 nM, respectively.
Regarding `O=C(CC1CC(F)(F)C1)N[C@@H](c1cnn2cc([C@@H](NC(=O)c3nonc3C3(O)CCCC3)C3CCC(F)(F)CC3)nc2c1)C1CC1` [Example 393, N—((S)-(7-((R)-Cyclopropyl(2-(3,3-difluorocyclobutyl)acetamido)methyl)imidazo[1,2-b]pyridazin-2-yl)(4,4-difluorocyclohexyl)methyl)-4-(1-hydroxycyclopentyl)-1,2,5-oxadiazole-3-carboxamide], the IC50 in experiment [1] was found to be 94 nM; in experiment [2] it was 120 nM.
